Laboratory results: PubChem BioAssay (NCI)
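Each compound was tested at five concentrations against cells in 96-well plates for 48 hours. GI50 marks 50% less growth. TGI: total growth inhibition.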

Assays:
Experiment in all cases: NCI-60 cell line screen, 48 h
MOLT-4 leukemia = system: MOLT-4 leukemia
HS 578T breast = system: HS 578T breast
T-47D breast = system: T-47D breast
SNB-19 CNS = system: SNB-19 CNS
SK-OV-3 ovarian = system: SK-OV-3 ovarian
HCT-116 colon = system: HCT-116 colon
MCF7 breast = system: MCF7 breast
OVCAR-5 ovarian = system: OVCAR-5 ovarian
NCI-H226 lung = system: NCI-H226 lung
KM12 colon = system: KM12 colon
NCI-H460 lung = system: NCI-H460 lung
LOX IMVI melanoma = system: LOX IMVI melanoma
OVCAR-8 ovarian = system: OVCAR-8 ovarian
SF-539 CNS = system: SF-539 CNS
U251 CNS = system: U251 CNS
UO-31 renal = system: UO-31 renal
MALME-3M melanoma = system: MALME-3M melanoma
SN12C renal = system: SN12C renal
SK-MEL-2 melanoma = system: SK-MEL-2 melanoma
TK-10 renal = system: TK-10 renal
SK-MEL-5 melanoma = system: SK-MEL-5 melanoma
RPMI-8226 leukemia = system: RPMI-8226 leukemia
MDA-MB-435 = system: MDA-MB-435
HT29 colon = system: HT29 colon
MDA-MB-231 breast = system: MDA-MB-231 breast
OVCAR-3 ovarian = system: OVCAR-3 ovarian
SF-295 CNS = system: SF-295 CNS
UACC-257 melanoma = system: UACC-257 melanoma
ACHN renal = system: ACHN renal
SR leukemia = system: SR leukemia
SF-268 CNS = system: SF-268 CNS
CCRF-CEM leukemia = system: CCRF-CEM leukemia
NCI-H522 lung = system: NCI-H522 lung
UACC-62 melanoma = system: UACC-62 melanoma
EKVX NSCLC = system: EKVX NSCLC
SK-MEL-28 melanoma = system: SK-MEL-28 melanoma
SW-620 colon = system: SW-620 colon
M14 melanoma = system: M14 melanoma
NCI-H23 lung = system: NCI-H23 lung
HCT-15 colon = system: HCT-15 colon
786-0 renal = system: 786-0 renal
DU-145 prostate = system: DU-145 prostate
HCC-2998 colon = system: HCC-2998 colon
MDA-MB-468 breast = system: MDA-MB-468 breast
SNB-75 CNS = system: SNB-75 CNS
HL-60(TB) leukemia = system: HL-60(TB) leukemia
IGROV1 ovarian = system: IGROV1 ovarian
RXF 393 renal = system: RXF 393 renal
PC-3 prostate = system: PC-3 prostate
CAKI-1 renal = system: CAKI-1 renal
HOP-62 NSCLC = system: HOP-62 NSCLC
A549 NSCLC = system: A549 NSCLC
HOP-92 NSCLC = system: HOP-92 NSCLC
BT-549 breast = system: BT-549 breast
A498 renal = system: A498 renal
K-562 leukemia = system: K-562 leukemia
OVCAR-4 ovarian = system: OVCAR-4 ovarian
COLO 205 colon = system: COLO 205 colon
NCI/ADR-RES ovarian = system: NCI/ADR-RES ovarian

## COc1cc(/C=C/C(=O)c2ccc(NC(=O)CN3C(=O)NC(C)(c4ccccc4)C3=O)cc2)cc(OC)c1OC (stereo not drawn)
MOLT-4 leukemia
  GI50: 2.57 µM
  TGI: 8.25 µM
HS 578T breast
  GI50: 32.6 µM
  TGI: > 100 µM
T-47D breast
  GI50: 6.56 µM
  TGI: 69.9 µM
SNB-19 CNS
  GI50: 14.9 µM
  TGI: 32.9 µM
SK-OV-3 ovarian
  GI50: 37.4 µM
  TGI: > 100 µM
HCT-116 colon
  GI50: 2.27 µM
  TGI: 8.61 µM
MCF7 breast
  GI50: 3.06 µM
  TGI: 13.5 µM
OVCAR-5 ovarian
  GI50: 10.5 µM
  TGI: 26.7 µM
NCI-H226 lung
  GI50: 19.3 µM
  TGI: > 100 µM
KM12 colon
  GI50: 3.69 µM
  TGI: 17.8 µM
NCI-H460 lung
  GI50: 3.93 µM
  TGI: 22.7 µM
LOX IMVI melanoma
  GI50: 3.09 µM
  TGI: 13.2 µM
OVCAR-8 ovarian
  GI50: 5.03 µM
  TGI: > 100 µM
SF-539 CNS
  GI50: 2.23 µM
  TGI: 5.69 µM
U251 CNS
  GI50: 2.7 µM
  TGI: 12.4 µM
UO-31 renal
  GI50: 17.3 µM
  TGI: 74.1 µM
MALME-3M melanoma
  GI50: 14.6 µM
  TGI: 44.3 µM
SN12C renal
  GI50: 12.9 µM
  TGI: 42 µM
SK-MEL-2 melanoma
  GI50: 17.5 µM
  TGI: 40.7 µM
TK-10 renal
  GI50: 46.6 µM
  TGI: > 100 µM
SK-MEL-5 melanoma
  GI50: 9.99 µM
  TGI: 21.5 µM
RPMI-8226 leukemia
  GI50: 2.32 µM
  TGI: 10.2 µM
MDA-MB-435
  GI50: 3.64 µM
  TGI: 47.9 µM
HT29 colon
  GI50: 3.75 µM
  TGI: 13 µM
MDA-MB-231 breast
  GI50: 4.52 µM
  TGI: 25.4 µM
OVCAR-3 ovarian
  GI50: 4.16 µM
  TGI: 21 µM
SF-295 CNS
  GI50: 14.3 µM
  TGI: 31.8 µM
UACC-257 melanoma
  GI50: 11.6 µM
  TGI: 28 µM
ACHN renal
  GI50: 13.6 µM
  TGI: 46.7 µM
SR leukemia
  GI50: 1.93 µM
  TGI: > 100 µM
SF-268 CNS
  GI50: 8.39 µM
  TGI: 90.8 µM
CCRF-CEM leukemia
  GI50: 2.9 µM
  TGI: > 100 µM
NCI-H522 lung
  GI50: 9 µM
  TGI: 23.7 µM
UACC-62 melanoma
  GI50: 11.7 µM
  TGI: 24.8 µM
EKVX NSCLC
  GI50: 12.9 µM
  TGI: 75.8 µM
SK-MEL-28 melanoma
  GI50: 14.6 µM
  TGI: 32.1 µM
SW-620 colon
  GI50: 4.35 µM
  TGI: 20.8 µM
M14 melanoma
  GI50: 6.67 µM
  TGI: 22.9 µM
NCI-H23 lung
  GI50: 4.61 µM
  TGI: 19.4 µM
HCT-15 colon
  GI50: 11.7 µM
  TGI: 48.9 µM
786-0 renal
  GI50: 8.43 µM
  TGI: 23.3 µM
DU-145 prostate
  GI50: 3.66 µM
  TGI: 15 µM
HCC-2998 colon
  GI50: 2.92 µM
  TGI: 8.97 µM
MDA-MB-468 breast
  GI50: 3.2 µM
  TGI: 12.6 µM
SNB-75 CNS
  GI50: 5.33 µM
  TGI: 84.5 µM
HL-60(TB) leukemia
  GI50: 2.26 µM
  TGI: 8.23 µM
IGROV1 ovarian
  GI50: 4.85 µM
  TGI: 25.2 µM
RXF 393 renal
  GI50: 3.01 µM
  TGI: 12.2 µM
PC-3 prostate
  GI50: 10.8 µM
  TGI: > 100 µM
CAKI-1 renal
  GI50: 8.66 µM
  TGI: > 100 µM
HOP-62 NSCLC
  GI50: 15.8 µM
  TGI: 93.4 µM
A549 NSCLC
  GI50: 4.53 µM
  TGI: > 100 µM
HOP-92 NSCLC
  GI50: 34 µM
  TGI: > 100 µM
BT-549 breast
  GI50: 4.73 µM
  TGI: 21.2 µM
A498 renal
  GI50: 31.6 µM
  TGI: > 100 µM
K-562 leukemia
  GI50: 3.16 µM
  TGI: > 100 µM
OVCAR-4 ovarian
  GI50: 13.4 µM
  TGI: > 100 µM
COLO 205 colon
  GI50: 13.7 µM
  TGI: 30.4 µM
NCI/ADR-RES ovarian
  GI50: > 100 µM
  TGI: > 100 µM
